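Five concentrations, 48 hours, 96-well plates. GI50 marks 50% less growth.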 Active and inactive are the calls of the source. Rule as the data show it: active = GI50 up to about 1.1 µM and inactive = higher.
How the values were obtained:
Assay in all cases: NCI tumour cell line growth inhibition, 48 h
SN12C = tested on: SN12C
IGROV-1 = tested on: IGROV-1
UO-31 = tested on: UO-31
NCI-H522 = tested on: NCI-H522
M14 = tested on: M14
DU-145 = tested on: DU-145
OVCAR-8 = tested on: OVCAR-8
NCI-H226 = tested on: NCI-H226
HT-29 = tested on: HT-29
SK-MEL-2 = tested on: SK-MEL-2
HL-60 = tested on: HL-60
A549 = tested on: A549
SK-MEL-5 = tested on: SK-MEL-5
786-0 = tested on: 786-0
CCRF-CEM = tested on: CCRF-CEM
EKVX = tested on: EKVX
COLO 205 = tested on: COLO 205
TK-10 = tested on: TK-10
KM12 = tested on: KM12
SK-OV-3 = tested on: SK-OV-3

Measured: GI50

N#Cc1c(-c2nc3ccccc3s2)c(=O)oc2cc(O)ccc12
inactive: SN12C 42.3 µM | IGROV-1 15.3 µM | UO-31 22 µM | NCI-H522 13.2 µM | M14 35.2 µM | DU-145 22.6 µM | OVCAR-8 32.1 µM | NCI-H226 41 µM | HT-29 13 µM | SK-MEL-2 49.7 µM | HL-60 23.5 µM | A549 26.9 µM | SK-MEL-5 10.2 µM | 786-0 26.4 µM | CCRF-CEM 25.4 µM | EKVX 39.6 µM | COLO 205 13.3 µM | TK-10 > 100 µM | KM12 22.3 µM

O=C(O)CCSc1ncnc2[nH]cnc12
inactive: SN12C > 100 µM | IGROV-1 > 100 µM | UO-31 > 100 µM | NCI-H522 > 100 µM | M14 > 100 µM | DU-145 > 100 µM | OVCAR-8 > 100 µM | NCI-H226 64.7 µM | HT-29 > 100 µM | SK-MEL-2 > 100 µM | HL-60 > 100 µM | A549 > 100 µM | SK-MEL-5 > 100 µM | 786-0 > 100 µM | CCRF-CEM > 100 µM | SK-OV-3 > 100 µM | EKVX > 100 µM | COLO 205 > 100 µM | TK-10 > 100 µM | KM12 > 100 µM

CN1C(=S)C(c2ccccc2)Sc2ccccc21 (configuration not stated)
inactive: SN12C > 100 µM | IGROV-1 > 100 µM | UO-31 35.6 µM | NCI-H522 54.3 µM | M14 > 100 µM | DU-145 > 100 µM | OVCAR-8 43.3 µM | NCI-H226 90.6 µM | HT-29 > 10 µM | HL-60 87.5 µM | A549 84.3 µM | SK-MEL-5 34.8 µM | 786-0 > 100 µM | CCRF-CEM 8.77 µM | SK-OV-3 42.8 µM | EKVX 14 µM | COLO 205 47.4 µM | TK-10 85.9 µM | KM12 63.7 µM

O=C(O)C1C2C=CC(O2)C1C(=O)Nc1ncccn1 (configuration not stated)
inactive: SN12C > 100 µM | IGROV-1 > 100 µM | UO-31 > 100 µM | NCI-H522 > 100 µM | M14 > 100 µM | DU-145 > 100 µM | OVCAR-8 > 100 µM | NCI-H226 > 100 µM | HT-29 > 100 µM | SK-MEL-2 > 100 µM | HL-60 > 100 µM | A549 > 100 µM | SK-MEL-5 > 100 µM | 786-0 > 100 µM | CCRF-CEM > 100 µM | SK-OV-3 > 100 µM | EKVX > 100 µM | COLO 205 > 100 µM | TK-10 > 100 µM | KM12 > 100 µM

CCCCn1c(C)c(C(=O)OCC)c2cc(OCc3ccc(C(=O)Nn4c(C)ccc4C)cc3)c(Br)cc21
inactive: SN12C > 100 µM | IGROV-1 > 100 µM | NCI-H522 > 100 µM | M14 > 100 µM | DU-145 > 100 µM | OVCAR-8 > 100 µM | NCI-H226 > 100 µM | HT-29 > 100 µM | SK-MEL-2 > 100 µM | HL-60 > 100 µM | A549 > 100 µM | SK-MEL-5 > 100 µM | 786-0 > 100 µM | CCRF-CEM > 100 µM | SK-OV-3 > 100 µM | EKVX > 100 µM | COLO 205 > 100 µM | TK-10 > 100 µM | KM12 > 100 µM

Cc1cccc2c(=O)c3cccc([C@H](C)C(=O)O)c3oc12
inactive: SN12C > 100 µM | IGROV-1 > 100 µM | UO-31 > 100 µM | NCI-H522 > 100 µM | M14 > 100 µM | DU-145 > 100 µM | OVCAR-8 > 100 µM | NCI-H226 > 100 µM | HT-29 > 100 µM | SK-MEL-2 > 100 µM | HL-60 > 100 µM | A549 > 100 µM | SK-MEL-5 > 100 µM | 786-0 > 100 µM | CCRF-CEM > 100 µM | SK-OV-3 > 100 µM | EKVX > 100 µM | COLO 205 > 100 µM | TK-10 > 100 µM | KM12 > 100 µM

CCOC(=O)c1cc2c(OC)cc(OC)cc2oc1=O
inactive: SN12C > 100 µM | IGROV-1 > 100 µM | NCI-H522 52.1 µM | M14 > 100 µM | DU-145 > 100 µM | OVCAR-8 > 100 µM | NCI-H226 > 100 µM | HT-29 > 100 µM | SK-MEL-2 > 100 µM | HL-60 > 100 µM | A549 > 100 µM | SK-MEL-5 > 100 µM | 786-0 52.5 µM | CCRF-CEM > 100 µM | EKVX > 100 µM | COLO 205 > 100 µM | TK-10 > 100 µM

N#Cc1nc(-c2cccc(-c3nc(C#N)c(N)o3)n2)oc1N
inactive: SN12C > 100 µM | IGROV-1 > 100 µM | UO-31 > 100 µM | NCI-H522 > 100 µM | M14 > 100 µM | DU-145 > 100 µM | OVCAR-8 > 100 µM | NCI-H226 > 100 µM | HT-29 > 100 µM | SK-MEL-2 > 100 µM | HL-60 64.7 µM | A549 > 100 µM | SK-MEL-5 > 100 µM | 786-0 > 100 µM | CCRF-CEM 21.2 µM | SK-OV-3 > 100 µM | EKVX > 100 µM | COLO 205 > 100 µM | TK-10 > 100 µM | KM12 > 100 µM

Nc1nc(Cl)cc(NCC2(CO)CCCC2)n1
inactive: SN12C > 100 µM | IGROV-1 > 100 µM | UO-31 > 100 µM | NCI-H522 49.1 µM | M14 > 100 µM | DU-145 > 100 µM | OVCAR-8 > 100 µM | NCI-H226 > 100 µM | HT-29 > 100 µM | SK-MEL-2 > 100 µM | HL-60 > 100 µM | A549 > 100 µM | SK-MEL-5 80.4 µM | 786-0 > 100 µM | CCRF-CEM > 100 µM | SK-OV-3 > 100 µM | EKVX > 100 µM | COLO 205 > 100 µM | TK-10 > 100 µM | KM12 > 100 µM

CCOC(=O)CCNC(=O)c1cc(C)cc2c1Oc1c(cc(C)cc1C(=O)NCCC(=O)OCC)S2
inactive: SN12C > 100 µM | IGROV-1 > 100 µM | UO-31 > 100 µM | NCI-H522 40.6 µM | M14 > 100 µM | DU-145 > 100 µM | OVCAR-8 78.3 µM | NCI-H226 81.7 µM | HT-29 > 100 µM | SK-MEL-2 90.8 µM | HL-60 > 100 µM | A549 64 µM | SK-MEL-5 35.9 µM | 786-0 50 µM | CCRF-CEM > 100 µM | SK-OV-3 > 100 µM | EKVX > 100 µM | COLO 205 > 100 µM | TK-10 42.3 µM | KM12 > 100 µM

CC(=O)O[C@H]1CC[C@@]2(C)C(=CC[C@@H]3[C@@H]2CC[C@]2(C)c4c(cc(C#N)c(=N)n4C(C)=O)C[C@@H]32)C1
inactive: SN12C 17.4 µM | IGROV-1 22.2 µM | UO-31 22 µM | NCI-H522 17.9 µM | M14 16.9 µM | DU-145 27.1 µM | OVCAR-8 16.7 µM | NCI-H226 27.4 µM | HT-29 17.9 µM | HL-60 14.6 µM | A549 23 µM | SK-MEL-5 15.5 µM | 786-0 20.5 µM | CCRF-CEM 3.6 µM | SK-OV-3 6.7 µM | EKVX 15.9 µM | COLO 205 16.1 µM | TK-10 25.4 µM | KM12 17.9 µM

COc1cc2c(cc1OC)[C@@H]1[C@H](C#N)C(=O)C(C)(C)N1CC2
inactive: SN12C > 100 µM | IGROV-1 > 100 µM | UO-31 > 100 µM | NCI-H522 > 100 µM | M14 > 100 µM | DU-145 > 100 µM | OVCAR-8 > 100 µM | NCI-H226 > 100 µM | HT-29 > 100 µM | HL-60 23.6 µM | A549 > 100 µM | SK-MEL-5 > 100 µM | 786-0 > 100 µM | CCRF-CEM > 100 µM | SK-OV-3 > 100 µM | EKVX > 100 µM | COLO 205 > 100 µM | TK-10 > 100 µM | KM12 > 100 µM

COc1ccc(/C=C2\N=C(c3ccccc3)N(C3Nc4cc5c(cc4S3)NC(N3C(=O)/C(=C/c4ccc(OC)cc4)N=C3c3ccccc3)S5)C2=O)cc1 (configuration not stated)
inactive: IGROV-1 > 100 µM | UO-31 > 100 µM | NCI-H522 18.1 µM | M14 > 100 µM | DU-145 50.5 µM | OVCAR-8 27.1 µM | NCI-H226 60.1 µM | HT-29 46.2 µM | SK-MEL-2 31.6 µM | HL-60 33.2 µM | A549 36.8 µM | SK-MEL-5 37.2 µM | 786-0 28.1 µM | EKVX 16.7 µM | TK-10 > 100 µM | KM12 54.6 µM

Cc1ccc(S(=O)(=O)OC2=C/C(=N\c3onc(C)c3C)c3ccccc3C2=O)cc1
inactive: SN12C 18.7 µM | IGROV-1 > 10 µM | UO-31 17 µM | NCI-H522 7.46 µM | M14 18.8 µM | DU-145 51.6 µM | OVCAR-8 18.3 µM | NCI-H226 35.4 µM | HT-29 34.2 µM | SK-MEL-2 12.9 µM | HL-60 6.43 µM | A549 51.1 µM | SK-MEL-5 18.3 µM | 786-0 37.1 µM | SK-OV-3 28.7 µM | EKVX > 100 µM | COLO 205 86.5 µM | TK-10 36.6 µM | KM12 20.2 µM

Reference: ChEMBL document CHEMBL1201862, “PubChem BioAssay data set” (2004)
